Experiments:
[1] = Biodistribution of 177Lu-labeled αMSH analogues in mice bearing SK-MEL-1 human melanoma; conditions: male, mouse, total radioactivity
Protocol: (§1) The SK-MEL-1 human melanoma cell line (HTB-67) was obtained commercially from ATCC. SK-MEL-1 cells were cultured in Eagle's Minimum Essential Medium (StemCell Technologies) under the same conditions as described in Example 1. Immunodeficient NOD.Cg-Rag1tm1Mom I12rgtm1Wjl/SzJ (NRG) male mice were obtained from an in-house breeding colony at the BC Cancer Research Centre. For tumor implantation, male NRG mice were anesthetized by inhalation with 2% isoflurane, and 5 million SK-MEL-1 cells were inoculated subcutaneously on the right dorsal flank. Mice were used for imaging or biodistribution studies when the tumors reached 6-8 mm in diameter in 16-20 days.
(§2) Biodistribution studies were performed as described in Example 3.

SK-MEL-1 human melanoma [2] = assay: as above; conditions: compared to the other two analogues
Protocol: as §1, §2

in vivo = conditions: male, NRG (NOD.Cg-Rag1tm1Mom Il2rgtm1Wjl/SzJ), mouse, total radioactivity
Protocol: as §1, §2

SK-MEL-1 human melanoma [3] = assay: Radioligand therapy of SK-MEL-1 human melanoma-bearing mice; assay type: in vivo, NRG mice; conditions: radiotherapy group, 26.7±3.6 MBq/mouse
Protocol: For radioligand therapy, SK-MEL-1 human melanoma-bearing mice were injected with saline (control group, n=5), non-radioactive lutetium coupled CCZ01158 (cold std, n=4), and [^177Lu]Lu-CCZ01158 (26.7±3.6 MBq/mouse, n=4). Tumour size and body weight were measured every 2-4 days from the date of injection. Endpoint was defined as >15% weight loss, ulceration of tumours, or tumour volume >1000 mm^3 (Volume=width×width×length/2, measured with calliper). […] This confirms the effectiveness of the ^177Lu radiotherapy with CCZ01158 as the melanoma targeting molecule. […] All mice were euthanized when the tumours reached over 1000 mm^3, except for one mouse due to weight loss in the saline group, and one mouse due to tumour ulceration in the cold std group.

[4] = NRG (NOD.Cg-Rag1tm1Mom I12rgtm1Wjl/SzJ), fat, iv
[5] = NRG (NOD.Cg-Rag1tm1Mom I12rgtm1Wjl/SzJ), seminal glands, iv
[6] = NRG (NOD.Cg-Rag1tm1Mom Il2rgtm1Wjl/SzJ), SK-MEL-1 tumour
[7] = NRG (NOD.Cg-Rag1tm1Mom Il2rgtm1Wjl/SzJ), adrenal glands
[8] = NRG (NOD.Cg-Rag1tm1Mom Il2rgtm1Wjl/SzJ), blood
[9] = NRG (NOD.Cg-Rag1tm1Mom Il2rgtm1Wjl/SzJ), bone
[10] = NRG (NOD.Cg-Rag1tm1Mom Il2rgtm1Wjl/SzJ), brain
[11] = NRG (NOD.Cg-Rag1tm1Mom Il2rgtm1Wjl/SzJ), heart
[12] = NRG (NOD.Cg-Rag1tm1Mom Il2rgtm1Wjl/SzJ), intestine
[13] = NRG (NOD.Cg-Rag1tm1Mom Il2rgtm1Wjl/SzJ), kidneys
[14] = NRG (NOD.Cg-Rag1tm1Mom Il2rgtm1Wjl/SzJ), liver
[15] = NRG (NOD.Cg-Rag1tm1Mom Il2rgtm1Wjl/SzJ), lungs
[16] = NRG (NOD.Cg-Rag1tm1Mom Il2rgtm1Wjl/SzJ), muscle
[17] = NRG (NOD.Cg-Rag1tm1Mom Il2rgtm1Wjl/SzJ), pancreas
[18] = NRG (NOD.Cg-Rag1tm1Mom Il2rgtm1Wjl/SzJ), spleen
[19] = NRG (NOD.Cg-Rag1tm1Mom Il2rgtm1Wjl/SzJ), stomach
[20] = NRG (NOD.Cg-Rag1tm1Mom Il2rgtm1Wjl/SzJ), testes
[21] = NRG (NOD.Cg-Rag1tm1Mom Il2rgtm1Wjl/SzJ), thyroid
[22] = NRG (NOD.Cg-Rag1tm1Mom Il2rgtm1Wjl/SzJ), urine

CCCC[C@H](NC(=O)CN1CCC(NC(=O)[C@H](CCCCNC(=O)CN2CCN(CC(=O)O)CCN(CC(=O)O)CCN(CC(=O)O)CC2)NC(=O)CNC(=O)CCCc2ccc(-c3ccc(C)cc3)cc2)CC1)C(=O)N[C@H]1CC(=O)NCCCC[C@@H](C(N)=O)N(C)C(=O)[C@H](Cc2c[nH]c3ccccc23)NC(=O)[C@H](CCCNC(=N)N)N(C)C(=O)[C@@H](Cc2ccccc2)NC(=O)[C@H](Cc2c[nH]cn2)NC1=O [^177Lu-labeled CCZ01158, metal not drawn]
tissue uptake at 1 h [1, 4]: 2.24 ± 0.49 %ID/g | tissue uptake at 4 h [1, 4]: 1.85 ± 0.53 %ID/g | tissue uptake at 24 h [1, 4]: 0.3 ± 0.07 %ID/g | tissue uptake at 120 h [1, 4]: 0.2 ± 0.08 %ID/g | tissue uptake at 1 h [1, 5]: 1.8 ± 0.79 %ID/g | tissue uptake at 4 h [1, 5]: 0.79 ± 0.13 %ID/g | tissue uptake at 24 h [1, 5]: 0.15 ± 0.07 %ID/g | tissue uptake at 120 h [1, 5]: 0.11 ± 0.06 %ID/g | tissue uptake at 1 h [1, 6]: 13.3 ± 2.94 %ID/g | tissue uptake at 4 h [1, 6]: 24.3 ± 5.04 %ID/g | tissue uptake at 24 h [1, 6]: 29.7 ± 4.29 %ID/g | tissue uptake at 120 h [1, 6]: 19.3 ± 7.95 %ID/g | tissue uptake at 1 h [1, 7]: 5.1 ± 1.69 %ID/g | tissue uptake at 4 h [1, 7]: 3.54 ± 1.01 %ID/g | tissue uptake at 24 h [1, 7]: 1.68 ± 0.93 %ID/g | tissue uptake at 120 h [1, 7]: 1.36 ± 1.56 %ID/g | tissue uptake at 1 h [1, 8]: 19.1 ± 3.57 %ID/g | tissue uptake at 4 h [1, 8]: 10.8 ± 0.87 %ID/g | tissue uptake at 24 h [1, 8]: 0.54 ± 0.24 %ID/g | tissue uptake at 120 h [1, 8]: 0.04 ± 0.01 %ID/g | tissue uptake at 1 h [1, 9]: 1.36 ± 0.32 %ID/g | tissue uptake at 4 h [1, 9]: 0.8 ± 0.24 %ID/g | tissue uptake at 24 h [1, 9]: 0.24 ± 0.15 %ID/g | tissue uptake at 120 h [1, 9]: 0.23 ± 0.09 %ID/g | tissue uptake at 1 h [1, 10]: 0.33 ± 0.1 %ID/g | tissue uptake at 4 h [1, 10]: 0.2 ± 0.01 %ID/g | tissue uptake at 24 h [1, 10]: 0.04 ± 0.02 %ID/g | tissue uptake at 120 h [1, 10]: 0.03 ± 0.02 %ID/g | tissue uptake at 1 h [1, 11]: 4.7 ± 0.7 %ID/g | tissue uptake at 4 h [1, 11]: 2.84 ± 0.4 %ID/g | tissue uptake at 24 h [1, 11]: 0.5 ± 0.2 %ID/g | tissue uptake at 120 h [1, 11]: 0.3 ± 0.13 %ID/g | tissue uptake at 1 h [1, 12]: 2.07 ± 0.42 %ID/g | tissue uptake at 4 h [1, 12]: 1.32 ± 0.2 %ID/g | tissue uptake at 24 h [1, 12]: 0.51 ± 0.52 %ID/g | tissue uptake at 120 h [1, 12]: 0.28 ± 0.11 %ID/g | tissue uptake at 1 h [1, 13]: 11.3 ± 2.81 %ID/g | tissue uptake at 4 h [1, 13]: 11.3 ± 1.38 %ID/g | tissue uptake at 24 h [1, 13]: 8.29 ± 1.94 %ID/g | tissue uptake at 120 h [1, 13]: 3.26 ± 1.6 %ID/g | tissue uptake at 1 h [1, 14]: 7.24 ± 2.38 %ID/g | tissue uptake at 4 h [1, 14]: 6.37 ± 1.33 %ID/g | tissue uptake at 24 h [1, 14]: 4.45 ± 2.6 %ID/g | tissue uptake at 120 h [1, 14]: 3.85 ± 1.63 %ID/g | tissue uptake at 1 h [1, 15]: 11.2 ± 2.91 %ID/g | tissue uptake at 4 h [1, 15]: 6.81 ± 1.45 %ID/g | tissue uptake at 24 h [1, 15]: 1.55 ± 1.22 %ID/g | tissue uptake at 120 h [1, 15]: 2.15 ± 2.57 %ID/g | tissue uptake at 1 h [1, 16]: 1.67 ± 0.35 %ID/g | tissue uptake at 4 h [1, 16]: 1.03 ± 0.06 %ID/g | tissue uptake at 24 h [1, 16]: 0.13 ± 0.04 %ID/g | tissue uptake at 120 h [1, 16]: 0.05 ± 0.02 %ID/g | tissue uptake at 1 h [1, 17]: 1.87 ± 0.3 %ID/g | tissue uptake at 4 h [1, 17]: 1.22 ± 0.08 %ID/g | tissue uptake at 24 h [1, 17]: 0.27 ± 0.13 %ID/g | tissue uptake at 120 h [1, 17]: 0.16 ± 0.07 %ID/g | tissue uptake at 1 h [1, 18]: 3.9 ± 1.66 %ID/g | tissue uptake at 4 h [1, 18]: 2.5 ± 0.5 %ID/g | tissue uptake at 24 h [1, 18]: 1.89 ± 0.85 %ID/g | tissue uptake at 120 h [1, 18]: 4.6 ± 3.88 %ID/g | tissue uptake at 1 h [1, 19]: 0.85 ± 0.29 %ID/g | tissue uptake at 4 h [1, 19]: 0.66 ± 0.12 %ID/g | tissue uptake at 24 h [1, 19]: 1.07 ± 1.42 %ID/g | tissue uptake at 120 h [1, 19]: 1.24 ± 0.65 %ID/g | tissue uptake at 1 h [1, 20]: 2.99 ± 0.56 %ID/g | tissue uptake at 4 h [1, 20]: 2.8 ± 0.12 %ID/g | tissue uptake at 24 h [1, 20]: 0.92 ± 0.26 %ID/g | tissue uptake at 120 h [1, 20]: 0.56 ± 0.25 %ID/g | tissue uptake at 1 h [1, 21]: 5.57 ± 0.79 %ID/g | tissue uptake at 4 h [1, 21]: 5.74 ± 0.74 %ID/g | tissue uptake at 24 h [1, 21]: 5.04 ± 1.22 %ID/g | tissue uptake at 120 h [1, 21]: 5.4 ± 2.58 %ID/g | tissue to tissue ratio at 1 h ([1]; NRG (NOD.Cg-Rag1tm1Mom Il2rgtm1Wjl/SzJ), tumour/kidney, 1 h p.i., NRG mice, SK-MEL-1 melanoma): 1.18 ± 0.11 | tissue to tissue ratio at 4 h ([1]; NRG (NOD.Cg-Rag1tm1Mom Il2rgtm1Wjl/SzJ), tumour/kidney, 4 h p.i., NRG mice, SK-MEL-1 melanoma): 2.14 ± 0.26 | tissue to tissue ratio at 24 h ([1]; NRG (NOD.Cg-Rag1tm1Mom Il2rgtm1Wjl/SzJ), tumour/kidney, 24 h p.i., NRG mice, SK-MEL-1 melanoma): 3.68 ± 0.6 | tissue to tissue ratio at 120 h ([1]; NRG (NOD.Cg-Rag1tm1Mom Il2rgtm1Wjl/SzJ), tumour/kidney, 120 h p.i., NRG mice, SK-MEL-1 melanoma): 6.17 ± 1.09 | excreta dose per gram or mL at 1 h [1, 22]: 214 ± 57.6 %ID/g | excreta dose per gram or mL at 4 h [1, 22]: 258 ± 66.2 %ID/g | excreta dose per gram or mL at 24 h [1, 22]: 21.8 ± 4.6 %ID/g | excreta dose per gram or mL at 120 h [1, 22]: 3.56 ± 1.16 %ID/g | Overall comparison of tumour uptake and tumour to background contrast (SK-MEL-1 human melanoma [2]): superior due to high and sustained tumour uptake, as well as superior tumour to background contrast | tissue to tissue ratio at 1 h (in vivo; Tumour/blood): 0.69 ± 0.08 | tissue to tissue ratio at 4 h (in vivo; Tumour/blood): 2.24 ± 0.36 | tissue to tissue ratio at 24 h (in vivo; Tumour/blood): 62.8 ± 26.4 | tissue to tissue ratio at 120 h (in vivo; Tumour/blood): 436 ± 64.7 | tissue to tissue ratio at 1 h (in vivo; Tumour/muscle): 7.99 ± 1.03 | tissue to tissue ratio at 4 h (in vivo; Tumour/muscle): 23.6 ± 4.32 | tissue to tissue ratio at 24 h (in vivo; Tumour/muscle): 245 ± 48 | tissue to tissue ratio at 120 h (in vivo; Tumour/muscle): 394 ± 42.9 | Adverse effects (SK-MEL-1 human melanoma [3]): No obvious adverse effects were observed

— patent US11395857B2, “Radiolabeled melanocortin 1 receptor-specific alpha-melanocyte-stimulating hormone analogues for imaging or therapy” (PROVINCIAL HEALTH SERVICES AUTHORITY, priority 2018, dated 2022)
